Experimental findings from ChEMBL document CHEMBL1123558, “Antitumor activity of bis(diphenylphosphino)alkanes, their gold(I) coordination complexes, and related compounds” (J Med Chem, 1987) are described below.

“And” between values parts separate entries of the source, which are not always exact repeats. Identical values can stand only once.

Assay [1] concerns Mus musculus. Nature of the assay: Maximally tolerated dose was measured after ip administration of compound, 24 hr after tumor implantation. The class given is functional.
The test system of assay [2] is B16. Nature of the assay: In vitro cytotoxicity against murine B16 melanoma cells. The class given is functional, cell-based, Mus musculus.
The test system of assay [3] is P388. Nature of the assay: Maximum increase in life span was determined against P388 leukemia at 4-5 doses of compound. In kind it is functional, Mus musculus.
The species entered for assay [4] is Mus musculus.
For assay [5], the system named is Lewis lung carcinoma cell line. Description: Percent increase in life span after transplant tumor in Lewis lung carcinoma cells. In kind it is functional, Mus musculus.
The next assay deals with L1210. Description: Percent increase in life span after transplant tumor in L1210 leukemia. In kind it is functional, Mus musculus.
A further assay relates to ADJ/PC6. Nature of the assay: Tumor growth inhibition activity after subcutaneous transplanted tumor in ADJ-PC6 plasmacytoma cells. In kind it is functional, Mus musculus.
A short description of assay [6]: Tumor growth inhibition activity after subcutaneous transplanted tumor in mammary carcinoma 16/C cells. In kind it is functional, Mus musculus.
A further assay relates to M5076. Nature of the assay: Percent increase in life span after transplant tumor in M5076 reticulum cells. In kind it is functional, Mus musculus.
The subject of assay [7] is B16. Description: Percent increase in life span after transplant tumor in B16 melanoma cells. The class given is functional, Mus musculus.
Assay [8] can be described thus: Percent increase in life span after transplant tumor in Madison lung carcinoma cells. In kind it is functional, Mus musculus, M109.
In assay [9] the test system is P388. Description: Percent increase in life span after transplant tumor in p388 leukemia cells. In kind it is functional, Mus musculus.

The IC50 is the concentration at which inhibition is half-maximal. Low readings indicate inhibition by little substance, high ones a need for much substance. In the assay with Mus musculus [1], `COc1ccc(P(CCP(c2ccc(OC)cc2)c2ccc(OC)cc2)c2ccc(OC)cc2)cc1` came in with an MTD of 62 µM/kg. The same molecule registered an IC50 in the assay with B16 [2] (Mus musculus, B16) of 66 µM.
For `c1coc(P(CCP(c2ccco2)c2ccco2)c2ccco2)c1`, the MTD with Mus musculus [1] came to 180 µM/kg. In addition, the ILSmax in the assay on P388 [3] came to 60. In addition, the IC50 with B16 [2] (Mus musculus, B16) was more than 100 µM.
`Fc1ccc(P(CCP(c2ccc(F)cc2)c2ccc(F)cc2)c2ccc(F)cc2)cc1` showed an MTD with Mus musculus [1] of 17 µM/kg. This molecule registered an ILSmax with P388 [3] of 60. For the same molecule, the IC50 with B16 [2] (Mus musculus, B16) is more than 100 µM.
Molecule `Cc1cccc(P(CCP(c2cccc(C)c2)c2cccc(C)c2)c2cccc(C)c2)c1` displayed an MTD with Mus musculus [1] of 70 µM/kg. Also, the IC50 with B16 [2] (Mus musculus, B16) was more than 100 µM.
In the case of `c1ccc(P(CCP(CCP(c2ccccc2)c2ccccc2)CCP(c2ccccc2)c2ccccc2)c2ccccc2)cc1`, in the assay on Mus musculus [1], the MTD came out at 95 µM/kg. Also, the ILSmax in the assay with P388 [3] was 35. In the assay on B16 [2] (Mus musculus, B16), this molecule returned an IC50 of 58 µM.
For the molecule `c1ccc(CP(CCP(Cc2ccccc2)Cc2ccccc2)Cc2ccccc2)cc1`, the MTD with Mus musculus [1] came out at 44 µM/kg. Moreover, the IC50 in the assay on B16 [2] (Mus musculus, B16) was more than 100 µM.
`CN(C)c1ccc(P(CCP(c2ccc(N(C)C)cc2)c2ccc(N(C)C)cc2)c2ccc(N(C)C)cc2)cc1` yielded an MTD in the assay with Mus musculus [1] of more than 220 µM/kg.
The same measure, in the same setting: next, `COc1ccccc1P(CCP(c1ccccc1OC)c1ccccc1OC)c1ccccc1OC`: 120 µM/kg.
`FC(F)(F)c1ccc(P(CCP(c2ccc(C(F)(F)F)cc2)c2ccc(C(F)(F)F)cc2)c2ccc(C(F)(F)F)cc2)cc1`: in the assay on Mus musculus [1], the MTD stood at 48 µM/kg. The ILSmax in the assay with P388 [3] was 38.
In turn, `c1ccc(SCCSc2ccccc2)cc1` showed an MTD in the assay with Mus musculus [1] of 1000 µM/kg. In addition, the IC50 in the assay on B16 [2] (Mus musculus, B16) is more than 100 µM.
The molecule `CSc1ccccc1P(CCP(c1ccccc1SC)c1ccccc1SC)c1ccccc1SC` came in with an MTD in the assay with Mus musculus [1] of 110 µM/kg. Also, in the assay with P388 [3], the ILSmax is recorded as 51.
In the case of `c1ccc([As](CC[As](c2ccccc2)c2ccccc2)c2ccccc2)cc1`, the MTD in the assay with Mus musculus [1] turned out to be 82 µM/kg. In the assay with B16 [2] (Mus musculus, B16), this molecule came in with an IC50 of more than 100 µM.
In turn, `c1ccc(P(CC[As](c2ccccc2)c2ccccc2)c2ccccc2)cc1` returned an MTD with Mus musculus [1] of 89 µM/kg. Also, the IC50 with B16 [2] (Mus musculus, B16) came to 55 µM.
As for `O=[N+]([O-])[O][Ag].O=[N+]([O-])[O][Ag].c1ccc(P(CCP(c2ccccc2)c2ccccc2)c2ccccc2)cc1`, the MTD in the assay on Mus musculus [1] is 8 µM/kg.
In the assay with Mus musculus [1], `c1ccc(P(CCCCP(c2ccccc2)c2ccccc2)c2ccccc2)cc1` had an MTD of 66 µM/kg. Besides, in the assay on P388 [3], the ILSmax worked out at 45. In addition, the IC50 in the assay with B16 [2] (Mus musculus, B16) is more than 100 µM.
Turning to `C1CCC(P(CCP(C2CCCCC2)C2CCCCC2)C2CCCCC2)CC1`, the MTD with Mus musculus [1] was found to be 76 µM/kg. The molecule also had an ILSmax with P388 [3] of 68. In the assay with B16 [2] (Mus musculus, B16), this molecule came in with an IC50 of more than 100 µM.
In turn, `c1ccc(P(CCP(c2ccccn2)c2ccccn2)c2ccccn2)nc1` gave an MTD in the assay with Mus musculus [1] of 60 µM/kg. For the same molecule, the IC50 with B16 [2] (Mus musculus, B16) was more than 100 µM.
Turning to `CSc1ccc(P(CCP(c2ccc(SC)cc2)c2ccc(SC)cc2)c2ccc(SC)cc2)cc1`, in the assay with Mus musculus [1], the MTD was 55 µM/kg. The molecule further displayed an ILSmax in the assay with P388 [3] of 58.
With `c1cc(P(CCP(c2ccncc2)c2ccncc2)c2ccncc2)ccn1`, the MTD in the assay with Mus musculus [1] was determined as 80 µM/kg. In addition, the ILSmax in the assay with P388 [3] turned out to be 35.
The molecule `c1ccc(P(CCCCCCP(c2ccccc2)c2ccccc2)c2ccccc2)cc1` gave an MTD with Mus musculus [1] of 280 µM/kg. In the assay with B16 [2] (Mus musculus, B16), this molecule returned an IC50 of more than 100 µM.
With `CC(CP(c1ccccc1)c1ccccc1)P(c1ccccc1)c1ccccc1` (stereo not given), the MTD with Mus musculus [1] was determined as 78 µM/kg. In addition, the ILSmax in the assay with P388 [3] is reported as 86. In the assay on B16 [2] (Mus musculus, B16), this molecule had an IC50 of 50 µM.
Turning to “4,4'-Bis-diphenylphosphanyl-biphenyl; compound with GENERIC INORGANIC NEUTRAL COMPONENT”, in the assay filed under Mus musculus [4], the MTD is 35 µM/kg and 24 µM/kg and 30 µM/kg.
Regarding `c1ccc(P(CCP(c2ccccc2)c2ccccc2)CCP(c2ccccc2)c2ccccc2)cc1`, the MTD in the assay on Mus musculus [1] came out at 60 µM/kg. In addition, the ILSmax with P388 [3] turned out to be 80. In the assay with B16 [2] (Mus musculus, B16), this molecule displayed an IC50 of more than 100 µM.
`c1ccc(P(CCCP(c2ccccc2)c2ccccc2)c2ccccc2)cc1` showed an MTD in the assay with Mus musculus [1] of 78 µM/kg. The molecule further showed an ILSmax in the assay on P388 [3] of 75. The molecule further had an IC50 with B16 [2] (Mus musculus, B16) of 72 µM.
`C(#CP(c1ccccc1)c1ccccc1)P(c1ccccc1)c1ccccc1` showed an MTD with Mus musculus [1] of more than 300 µM/kg. This molecule also displayed an IC50 in the assay on B16 [2] (Mus musculus, B16) of 23 µM.
By ILS is commonly meant how much longer treated animals lived than controls. In general, TGI refers to the reduction of tumour growth relative to the control group. The low end stands for a weaker effect on the tumour, the high end for a stronger effect on the tumour. Take `c1ccc(P(CCP(c2ccccc2)c2ccccc2)c2ccccc2)cc1`: the MTD in the assay on Mus musculus [1] is 60 µM/kg and 50 µM/kg. Moreover, the ILS in [5] came to 69%; in the assay with L1210, 56%; in the assay with M5076, 74%; in the assay with B16 [7] it was 38%; in assay [8], 50%; in the assay with P388 [9], 107%. For the same molecule, the figures for the TGI (in the assay with ADJ/PC6; in [6]) were 94% and 88%, respectively. For the same molecule, the ILSmax in the assay with P388 [3] was 80 and 107. The IC50 worked out at 50 µM in the assay on B16 [2] (Mus musculus, B16) and 60 µM in the assay on B16 [2] (b16).
For the molecule `CCP(CC)CCP(CC)CC`, in the assay on Mus musculus [1], the MTD was 310 µM/kg. Moreover, the IC50 with B16 [2] (Mus musculus, B16) is more than 100 µM.
`Fc1ccccc1P(CCP(c1ccccc1F)c1ccccc1F)c1ccccc1F` yielded an MTD in the assay on Mus musculus [1] of 68 µM/kg. In addition, the ILSmax in the assay on P388 [3] turned out to be 45. For the same molecule, the IC50 in the assay with B16 [2] (Mus musculus, B16) was more than 100 µM.
Take `O=P(CCP(=O)(c1ccccc1)c1ccccc1)(c1ccccc1)c1ccccc1`: the MTD with Mus musculus [1] stood at 300 µM/kg. In the assay with B16 [2] (Mus musculus, B16), this molecule came in with an IC50 of more than 100 µM.
Molecule `c1ccc(P(CCCCCP(c2ccccc2)c2ccccc2)c2ccccc2)cc1` registered an MTD in the assay with Mus musculus [1] of 18 µM/kg. The ILSmax in the assay on P388 [3] came to 50. Further, the IC50 with B16 [2] (Mus musculus, B16) is more than 100 µM.
For the molecule `C(=C\P(c1ccccc1)c1ccccc1)/P(c1ccccc1)c1ccccc1`, the MTD in the assay with Mus musculus [1] was 320 µM/kg. In the assay on B16 [2] (Mus musculus, B16), this molecule displayed an IC50 of 40 µM.
In the case of `CC(C(C)P(c1ccccc1)c1ccccc1)P(c1ccccc1)c1ccccc1` (stereo not given), the MTD in the assay with Mus musculus [1] was determined as 113 µM/kg. The ILSmax in the assay with P388 [3] came to 73. In the assay on B16 [2] (Mus musculus, B16), this molecule showed an IC50 of 50 µM.
`c1ccc(P(c2ccccc2)P(c2ccccc2)c2ccccc2)cc1`: in the assay on Mus musculus [1], the MTD amounted to 320 µM/kg. This molecule also gave an IC50 in the assay on B16 [2] (Mus musculus, B16) of more than 100 µM.
As for `C(=C/P(c1ccccc1)c1ccccc1)/P(c1ccccc1)c1ccccc1`, the MTD in the assay with Mus musculus [1] worked out at 61 µM/kg. In addition, the ILSmax in the assay with P388 [3] was 60. In the assay on B16 [2] (Mus musculus, B16), this molecule showed an IC50 of 25 µM.
In the case of `c1csc(P(CCP(c2cccs2)c2cccs2)c2cccs2)c1`, the MTD in the assay on Mus musculus [1] turned out to be 38 µM/kg. This molecule displayed an ILSmax in the assay on P388 [3] of 60. This molecule had an IC50 in the assay on B16 [2] (Mus musculus, B16) of more than 100 µM.
Consider `c1ccc(P(c2ccccc2)c2ccc(P(c3ccccc3)c3ccccc3)cc2)cc1`, for which the MTD with Mus musculus [1] was more than 600 µM/kg. The molecule further came in with a half-inhibitory concentration (IC50) in the assay on B16 [2] (Mus musculus, B16) of more than 100 µM.
The matching figures for `Cc1ccc(P(CCP(c2ccc(C)cc2)c2ccc(C)cc2)c2ccc(C)cc2)cc1`: 26 µM/kg and more than 100 µM.
The matching figures for `CCP(CCP(CC)c1ccccc1)c1ccccc1` (stereo not given): more than 300 µM/kg and more than 100 µM.
